Assay results as given in patent US20240270748A1 (Merck Patent GmbH, priority 2021, published 2024).

Assays:
YAP-TEAD interaction = assay: SK-HEP-1 reporter assay (8xTEAD responsive elements driving NanoLuc luciferase); assay type: cell-based; settings: Homo sapiens, SK-HEP1, SK-HEP-1 reporter assay
Method in brief: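 SK-HEP-1 cells stably carrying 8×TEAD-driven NanoLuc treated in duplicate, 10-point dose from 30 μM final, 0.3% DMSO, 24 h at 37° C. Luminescence after NanoGlo lysis/substrate addition; IC50 calculated from dose response.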

SW620 Yap KO cells = assay: Viability assay in SW620 Yap KO (Yap independent) cells, CyQuant; assay type: cell-based; settings: Homo sapiens, SW-620, 96 h
Method in brief: (§1)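 Seeded cells were dosed 24 h later in duplicate (10-point, 1:3 dilutions, top 30 μM final, 0.3% DMSO) and incubated 96 h at 37 °C. Viability was read with CyQUANT DNA dye after 1 h, fluorescence bottom read. NCI-H226 in RPMI 1640 medium; SW620 YAP/TAZ CRISPR knockout in DMEM/F-12 medium.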

NCI-H226 cells = assay: Viability assay in NCI-H226 (Yap-dependent) cells, CyQuant; assay type: cell-based, human; settings: Homo sapiens, NCI-H226, 96 h
Method in brief: as §1

[1] = n.d. = value not detectable below threshold given in parentheses, ND = not determinable within the entire range

SMILES	IC50 (YAP-TEAD interaction; class symbols)	IC50 (SW620 Yap KO cells; [1])	IC50 (NCI-H226 cells; class symbols)	IC50 (SW620 Yap KO cells; class symbols)	IC50 (NCI-H226 cells; n.d. = value not detectable below threshold given in parentheses)	IC50 (YAP-TEAD interaction; [1])
Cc1snc2c1c1cc(C(=O)NCc3ccccn3)ccc1n2-c1ccc(C(F)(F)F)cc1 [Example C42, 3-methyl-N-[(pyridin-2-yl)methyl]-8-[4-(trifluoromethyl)phenyl]-8H-[1,2]thiazolo[3,4-b]indole-5-carboxamide]	10 to 100 nM	> 30000 nM	1 to 100 nM			
C[C@@H](CCN(C)C(=O)c1ccc2c(c1)c1cn(C)nc1n2-c1ccc(C(F)(F)F)cc1)NC(=O)c1ccc2c(c1)c1cn(C)nc1n2-c1ccc(C(F)(F)F)cc1 [Example C48, N,2-dimethyl-N-[(3S)-3-({2-methyl-8-[4-(trifluoromethyl)phenyl]-2H,8H-pyrazolo[3,4-b]indol-5-yl}formamido)butyl]-8-[4-(trifluoromethyl)phenyl]-2H,8H-pyrazolo[3,4-b]indole-5-carboxamide]	100 to 10000 nM	> 3200 nM	1000 to 10000 nM			
Cn1cc2c3cc(C4CC(Oc5cncnc5)=NO4)ccc3n(-c3ccc(C(F)(F)F)cc3)c2n1 (stereo not drawn) [Example C50, 5-[(5-{2-methyl-8-[4-(trifluoromethyl)phenyl]-2H,8H-pyrazolo[3,4-b]indol-5-yl}-4,5-dihydro-1,2-oxazol-3-yl)oxy]pyrimidine]	100 to 10000 nM	> 30000 nM	100 to 1000 nM			
CNC(=O)c1ccc2c(c1)c1c(C)snc1n2-c1ccc(C(F)(F)F)cc1 [Example C51, N,3-dimethyl-8-[4-(trifluoromethyl)phenyl]-8H-[1,2]thiazolo[3,4-b]indole-5-carboxamide]	10 to 100 nM		1 to 100 nM	1000 to 10000 nM		
Cc1snc2c1c1cc(C(=O)NCC(C)(C)O)ccc1n2-c1ccc(C(F)(F)F)cc1 [Example C52, N-(2-hydroxy-2-methylpropyl)-3-methyl-8-[4-(trifluoromethyl)phenyl]-8H-[1,2]thiazolo[3,4-b]indole-5-carboxamide]	10 to 100 nM	> 3200 nM	1 to 100 nM			
Cn1cc2c3cc(C(=O)NCc4ccccc4)ccc3n(-c3ccc(C(F)(F)F)cc3)c2n1 [Example C56, N-benzyl-2-methyl-8-[4-(trifluoromethyl)phenyl]-2H,8H-pyrazolo[3,4-b]indole-5-carboxamide]	10 to 100 nM	> 30000 nM	1 to 100 nM			
Cn1cc2c3cc(S(=O)(=O)NCCO)ccc3n(-c3ccc(C(F)(F)F)cc3)c2n1 [Example C57, N-(2-hydroxyethyl)-2-methyl-8-[4-(trifluoromethyl)phenyl]-2H,8H-pyrazolo[3,4-b]indole-5-sulfonamide]	10 to 100 nM	> 30000 nM	1000 to 10000 nM			
Cc1snc2c1c1cc(C(=O)NCc3ccncc3)ccc1n2-c1ccc(C(F)(F)F)cc1 [Example C62, 3-methyl-N-[(pyridin-4-yl)methyl]-8-[4-(trifluoromethyl)phenyl]-8H-[1,2]thiazolo[3,4-b]indole-5-carboxamide]	10 to 100 nM	> 3200 nM	1 to 100 nM			
Cc1snc2c1c1cc(C(=O)NCc3ccncn3)ccc1n2-c1ccc(C(F)(F)F)cc1 [Example C64, 3-methyl-N-[(pyrimidin-4-yl)methyl]-8-[4-(trifluoromethyl)phenyl]-8H-[1,2]thiazolo[3,4-b]indole-5-carboxamide]	10 to 100 nM	> 3200 nM	1 to 100 nM			
Cc1snc2c1c1cc(C(=O)NCCO)ccc1n2-c1ccc(C(F)(F)F)cc1 [Example C65, N-(2-hydroxyethyl)-3-methyl-8-[4-(trifluoromethyl)phenyl]-8H-[1,2]thiazolo[3,4-b]indole-5-carboxamide]	10 to 100 nM	> 3200 nM	1 to 100 nM			
Cc1snc2c1c1cc(C(=O)N[C@H](C)CO)ccc1n2-c1ccc(C(F)(F)F)cc1 [Example C66, N-[(2R)-1-hydroxypropan-2-yl]-3-methyl-8-[4-(trifluoromethyl)phenyl]-8H-[1,2]thiazolo[3,4-b]indole-5-carboxamide]	10 to 100 nM	> 3200 nM	1 to 100 nM			
Cc1snc2c1c1cc(C(=O)N[C@@H](CO)c3ccccn3)ccc1n2-c1ccc(C(F)(F)F)cc1 [Example C67, N-[(1R)-2-hydroxy-1-(pyridin-2-yl)ethyl]-3-methyl-8-[4-(trifluoromethyl)phenyl]-8H-[1,2]thiazolo[3,4-b]indole-5-carboxamide]	10 to 100 nM	> 3200 nM	1 to 100 nM			
Cc1snc2c1c1cc(C(=O)N[C@@H](C)CO)ccc1n2-c1ccc(C(F)(F)F)cc1 [Example C70, N-[(2S)-1-hydroxypropan-2-yl]-3-methyl-8-[4-(trifluoromethyl)phenyl]-8H-[1,2]thiazolo [3,4-b]indole-5-carboxamide]	10 to 100 nM	> 3200 nM	1 to 100 nM			
Cn1cc2c3cc(S(=O)(=O)NC4CC4)ccc3n(-c3ccc(C(F)(F)F)cc3)c2n1 [Example C72, N-cyclopropyl-2-methyl-8-[4-(trifluoromethyl)phenyl]-2H,8H-pyrazolo[3,4-b]indole-5-sulfonamide]	1 to 10 nM	> 3200 nM			> 3200 nM	
CC[C@H](CO)NC(=O)c1ccc2c(c1)c1c(C)snc1n2-c1ccc(C(F)(F)F)cc1 [Example C77, N-[(2R)-1-hydroxybutan-2-yl]-3-methyl-8-[4-(trifluoromethyl)phenyl]-8H-[1,2]thiazolo[3,4-b]indole-5-carboxamide]	10 to 100 nM	> 3200 nM	1 to 100 nM			
Cc1snc2c1c1cc(C(=O)N[C@](C)(CO)c3ccccc3)ccc1n2-c1ccc(C(F)(F)F)cc1 [Example C80, N-[(2S)-1-hydroxy-2-phenylpropan-2-yl]-3-methyl-8-[4-(trifluoromethyl)phenyl]-8H-[1,2]thiazolo[3,4-b]indole-5-carboxamide]	10 to 100 nM	> 30000 nM	1 to 100 nM			
Cc1snc2c1c1cc(C(=O)N[C@H](c3ccccc3)[C@H](C)O)ccc1n2-c1ccc(C(F)(F)F)cc1 [Example C81, N-[(1R,2S)-2-hydroxy-1-phenylpropyl]-3-methyl-8-[4-(trifluoromethyl)phenyl]-8H-[1,2]thiazolo[3,4-b]indole-5-carboxamide]	10 to 100 nM	> 3200 nM	1 to 100 nM			
CC[C@@H](CO)NC(=O)c1ccc2c(c1)c1c(C)snc1n2-c1ccc(C(F)(F)F)cc1 [Example C83, N-[(2S)-1-hydroxybutan-2-yl]-3-methyl-8-[4-(trifluoromethyl)phenyl]-8H-[1,2]thiazolo [3,4-b]indole-5-carboxamide]	10 to 100 nM	> 30000 nM	1 to 100 nM			
Cn1cc2c3cc(S(=O)(=O)NCCCO)ccc3n(-c3ccc(C(F)(F)F)cc3)c2n1 [Example C85, N-(3-hydroxypropyl)-2-methyl-8-[4-(trifluoromethyl)phenyl]-2H,8H-pyrazolo[3,4-b]indole-5-sulfonamide]		> 30000 nM	1000 to 10000 nM			> 30000 nM
Cn1nc2c3cc(C(=O)N[C@@H](CO)C(F)(F)F)ccc3n(-c3ccc(C(F)(F)F)cc3)c2n1 [Example C86, 2-methyl-N-[(2S)-1,1,1-trifluoro-3-hydroxypropan-2-yl]-4-[4-(trifluoromethyl)phenyl]-2H,4H-[1,2,3]triazolo [4,5-b]indole-7-carboxamide]	10 to 100 nM	> 30000 nM	1 to 100 nM			
Cc1snc2c1c1cc(C(=O)N[C@H](CO)C(C)C)ccc1n2-c1ccc(C(F)(F)F)cc1 [Example C88, N-[(2S)-1-hydroxy-3-methylbutan-2-yl]-3-methyl-8-[4-(trifluoromethyl)phenyl]-8H-[1,2]thiazolo[3,4-b]indole-5-carboxamide]	10 to 100 nM	> 3200 nM	100 to 1000 nM			
Cc1snc2c1c1cc(C(=O)NC[C@@H](C)O)ccc1n2-c1ccc(C(F)(F)F)cc1 [Example C90, N-[(2R)-2-hydroxypropyl]-3-methyl-8-[4-(trifluoromethyl)phenyl]-8H-[1,2]thiazolo [3,4-b]indole-5-carboxamide]	10 to 100 nM	> 3200 nM	1 to 100 nM			
Cc1snc2c1c1cc(C(=O)N[C@@H](CO)C3CCC3)ccc1n2-c1ccc(C(F)(F)F)cc1 [Example C91, N-[(1R)-1-cyclobutyl-2-hydroxyethyl]-3-methyl-8-[4-(trifluoromethyl)phenyl]-8H-[1,2]thiazolo[3,4-b]indole-5-carboxamide]	10 to 100 nM	> 3200 nM	1 to 100 nM			
Cc1snc2c1c1cc(C(=O)NC[C@H](C)O)ccc1n2-c1ccc(C(F)(F)F)cc1 [Example C94, N-[(2S)-2-hydroxypropyl]-3-methyl-8-[4-(trifluoromethyl)phenyl]-8H-[1,2]thiazolo[3,4-b]indole-5-carboxamide]	10 to 100 nM	> 30000 nM	1 to 100 nM			
Cc1c2c3cc(C(=O)O)ccc3n(-c3ccc(C(F)(F)F)cc3)c2nn1C [Example C95, 2,3-dimethyl-8-[4-(trifluoromethyl)phenyl]-2H,8H-pyrazolo[3,4-b]indole-5-carboxylic acid]	10 to 100 nM	> 30000 nM	1 to 100 nM			
CNC(=O)c1ccc2c(c1)c1c(C)n(C)nc1n2-c1ccc(C(F)(F)F)cc1 [Example C96, N,2,3-trimethyl-8-[4-(trifluoromethyl)phenyl]-2H,8H-pyrazolo[3,4-b]indole-5-carboxamide]	10 to 100 nM	> 3200 nM	1 to 100 nM			
